According to US20240059698A1 (Accutar Biotechnology Inc., priority 2022, published 2024):
Where two headings read alike, the source gives them in different places.

Tests used:
Type in all cases: cell-based
HCC827 cells = assay: Cell growth inhibition (CellTiter-Glo), HCC827; settings: Homo sapiens, 72 h, 3 days
Procedure, shortened: (§1)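 Readout was CellTiter-Glo luminescence after 3-day compound treatment at 37° C. Cells were seeded at 5000/well the previous night: HCC827 in RPMI/10% FBS, A431 in DMEM/10% FBS.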

[1] = tested on: HCC827-SVD cells (human EGFR exon 20 insertion mutant D770_N771insSVD); assay: Cell growth inhibition (CellTiter-Glo), HCC827-SVD; settings: 72 h, 3 days
Procedure, shortened: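 Growth read by CellTiter-Glo luminescence after 3-day compound exposure at 37 °C. Engineered clonal HCC827 line (native EGFR deleted by CRISPR, mutant EGFR re-expressed) plated at 5000 cells/well in 10% FBS RPMI the night before dosing.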

[2] = tested on: HCC827-YVMA cells (human ERBB2 exon20 insertion mutant A775_G776ins YVMA); assay: Cell growth inhibition (CellTiter-Glo), HCC827-YVMA; settings: 72 h, read-out: Cell growth inhibition, GI50 (nM) HCC827-YVMA
Procedure, shortened: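 Growth in RPMI with 10% FBS was measured by CellTiter-Glo luminescence after 3 days at 37 °C with test compounds across a concentration range. The single-clone HCC827 lines carry a lentiviral YVMA (ERBB2) or ASV (EGFR) exon 20 insertion, with endogenous EGFR removed via sgRNA/Cas9.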

A431 cells = assay: Cell growth inhibition (CellTiter-Glo), A431; settings: Homo sapiens, A-431, 72 h, 3 days
Procedure, shortened: as §1

[3] = tested on: HCC827-ASV cells (human EGFR exon 20 insertion mutant V769_D770insASV); assay: Cell growth inhibition (CellTiter-Glo), HCC827-ASV; settings: 72 h, read-out: Cell growth inhibition, GI50 (nM) HCC827-ASV
Experimental: Generation of HCC827-SVD, HCC827-ASV, and HCC827-YVMA cell lines. The HCC827-SVD cell line was generated by first transducing HCC827 cells (ATCC) with lentiviral particles expressing codon-optimized human EGFR exon 20 insertion mutant D770_N771insSVD, and then selecting under 5 µg/mL puromycin treatment for a week. The resulting cells were further transduced with lentiviral particles carrying EGFR sgRNA and CAS9 to knockout the endogenous alleles of EGER and then selected under 500 µg/mL hygromycin B treatment for two weeks. The limiting dilution approach was used to subsequently generate the single clone of the HCC827-SVD stable cell line. Endogenous EGFR knockout was confirmed by Sanger sequencing of cell genomic DNA, and expression of exogenous mutant EGFR was verified by Western blot analysis.
HCC827-ASV and HCC827-YVMA cell lines were generated in a similar approach as HCC827-SVD, except that HCC827 cells (ATCC) were first transduced with lentiviral particles expressing codon-optimized human EGFR exon 20 insertion mutant V769_D770insASV and human ERBB2 exon20 insertion mutant A775_G776ins YVMA, respectively.
2. Cell Growth Inhibition for HCC827, HCC827-SVD, HCC827-ASV, HCC827-YVMA, and A431.
HCC827(ATCC), HCC827-SVD, HCC827-ASV, and HCC827-YVMA cells were seeded in 96-well plates at 5000 cells/well in 90 μL of RPMI growth medium containing 10% FBS and 1% Penicillin Streptomycin. A431 (ATCC) cells were seeded in 96-well plates at 5000 cells/well in 90 μL of DMEM growth medium containing 10% FBS and 1% Penicillin Streptomycin. Cells were incubated at 37° C. overnight and then administered with 10 μL 10× test compounds prepared in the growth medium at various concentrations. After administration of the compounds, cells were incubated at 37° C. for 3 days. Before the CellTiter-Glo assay, the plates were equilibrated at room temperature for approximately 30 minutes. 100 ul of CellTiter-Glo reagent (Promega) was added to each well. The plates were then incubated at room temperature for 10 minutes and luminescence was recorded by the EnSight® multimode plate reader (PerkinElmer). Table 7 listed selected compounds in cellular growth assay.

[4] = HCC827-YVMA cells, 3 days, CellTiter-Glo
[5] = HCC827-ASV cells, 3 days, CellTiter-Glo

GI50 (HCC827 cells)	GI50 [1]	GI50 [2, 4]	GI50 (A431 cells)	GI50 [3, 5]	Structure (SMILES)	GI50 [3]	GI50 [2]
–	< 50 nM	< 50 nM	–	< 50 nM	C=CC(=O)N1CCC(c2c[nH]c3ncnc(Nc4cc(Cl)c(OCc5ccccn5)cc4F)c23)CC1 [Compound 221, 1-(4-(4-((5-chloro-2-fluoro-4-(pyridin-2-ylmethoxy)phenyl)amino)-7H-pyrrolo[2,3-d]pyrimidin-5-yl)piperidin-1-yl)prop-2-en-1-one]	–	–
–	< 50 nM	< 50 nM	–	< 50 nM	C=CC(=O)N1CCC(c2c[nH]c3ncnc(Nc4cc(Cl)c(OCc5ccccn5)cc4Cl)c23)CC1 [Compound 222, 1-[4-[4-[2,5-dichloro-4-(2-pyridylmethoxy)anilino]-7H-pyrrolo[2,3-d]pyrimidin-5-yl]-1-piperidyl]prop-2-en-1-one]	–	–
–	< 50 nM	< 50 nM	–	< 50 nM	C=CC(=O)N1CCC(c2c[nH]c3ncnc(Nc4ccc(OCc5ncc(F)s5)c(Cl)c4)c23)CC1 [Compound 223, 1-[4-[4-[3-chloro-4-[(5-fluorothiazol-2-yl)methoxy]anilino]-7H-pyrrolo[2,3-d]pyrimidin-5-yl]-1-piperidyl]prop-2-en-1-one]	–	–
–	< 50 nM	< 50 nM	–	< 50 nM	C=CC(=O)N1CCC(c2c[nH]c3ncnc(Nc4ccc5c(cnn5Cc5cccc(F)c5)c4)c23)CC1 [Compound 226, 1-(4-(4-((1-(3-fluorobenzyl)-1H-indazol-5-yl)amino)-7H-pyrrolo[2,3-d]pyrimidin-5-yl)piperidin-1-yl)prop-2-en-1-one]	–	–
–	< 50 nM	< 50 nM	–	< 50 nM	[2H]C([2H])(Oc1ccc(Nc2ncnc3[nH]cc(C4CCN(C(=O)C=C)CC4)c23)cc1Cl)c1ccccn1 [Compound 227, 1-(4-(4-((3-chloro-4-(pyridin-2-ylmethoxy-d2)phenyl)amino)-7H-pyrrolo[2,3-d]pyrimidin-5-yl)piperidin-1-yl)prop-2-en-1-one]	–	–
–	< 50 nM	< 50 nM	–	< 50 nM	C=CC(=O)N1CCC(c2c[nH]c3ncnc(Nc4ccc(OCc5cccc(F)c5)c(Cl)c4)c23)CC1 [Compound 228, 1-(4-(4-((3-chloro-4-((3-fluorobenzyl)oxy)phenyl)amino)-7H-pyrrolo[2,3-d]pyrimidin-5-yl)piperidin-1-yl)prop-2-en-1-one]	–	–
–	< 50 nM	< 50 nM	–	< 50 nM	C=CC(=O)N1CCC(c2c[nH]c3ncnc(Nc4ccc(OCc5ccsn5)c(Cl)c4)c23)CC1 [Compound 229, 1-(4-(4-((3-chloro-4-(isothiazol-3-ylmethoxy)phenyl)amino)-7H-pyrrolo[2,3-d]pyrimidin-5-yl)piperidin-1-yl)prop-2-en-1-one]	–	–
–	50 to 200 nM	50 to 200 nM	–	50 to 200 nM	C=CC(=O)N1CCC(c2c[nH]c3ncnc(Nc4ccc(Oc5ccnc(NC(=O)C6CCC6)c5)cc4F)c23)CC1 [Compound 231, N-(4-(4-((5-(1-acryloylpiperidin-4-yl)-7H-pyrrolo[2,3-d]pyrimidin-4-yl)amino)-3-fluorophenoxy)pyridin-2-yl)cyclobutanecarboxamide]	–	–

The next lines start with the compound.

Structure (SMILES)	GI50 (HCC827 cells)	GI50 [1]	GI50 [2, 4]	GI50 (A431 cells)	GI50 [3, 5]	GI50 [3]	GI50 [2]
C=CC(=O)N1CCC(c2ccn3ncnc(Nc4ccc(Oc5ccnc(N6CCC(C#N)C6)c5)cc4F)c23)CC1 (stereo not shown) [Compound 204, 1-(4-(4-((5-(1-acryloylpiperidin-4-yl)pyrrolo[2,1-f][1,2,4]triazin-4-yl)amino)-3-fluorophenoxy)pyridin-2-yl)pyrrolidine-3-carbonitrile]	> 1000 nM	50 to 200 nM	50 to 200 nM	> 1000 nM	–	–	–
C=CC(=O)N1CCC(c2ccn3ncnc(Nc4ccc(Oc5ccnc(N6CC7(CCOCC7)C6)c5)cc4F)c23)CC1 [Compound 205, 1-(4-(4-((4-((2-(7-oxa-2-azaspiro[3.5]nonan-2-yl)pyridin-4-yl)oxy)-2-fluorophenyl)amino)pyrrolo[2,1-f][1,2,4]triazin-5-yl)piperidin-1-yl)prop-2-en-1-one]	> 1000 nM	200 to 1000 nM	50 to 200 nM	> 1000 nM	–	–	–
C=CC(=O)N1CCC(c2ccn3ncnc(Nc4ccc(Oc5nc(-c6cnc(C)c(F)c6)cs5)cc4F)c23)CC1 [Compound 206, 1-[4-[4-[2-fluoro-4-[4-(5-fluoro-6-methyl-3-pyridyl)thiazol-2-yl]oxy-anilino]pyrrolo[2,1-f][1,2,4]triazin-5-yl]-1-piperidyl]prop-2-en-1-one]	> 1000 nM	200 to 1000 nM	50 to 200 nM	> 1000 nM	–	–	–
C=CC(=O)N1CCC(c2ccn3ncnc(Nc4ccc(Oc5nc(-c6ccnn6C)cs5)cc4F)c23)CC1 [Compound 207, 1-(4-(4-((2-fluoro-4-((4-(1-methyl-1H-pyrazol-5-yl)thiazol-2-yl)oxy)phenyl)amino)pyrrolo[2,1-f][1,2,4]triazin-5-yl)piperidin-1-yl)prop-2-en-1-one]	> 1000 nM	200 to 1000 nM	50 to 200 nM	> 1000 nM	–	–	–
C=CC(=O)N1CCC(c2c[nH]c3ncnc(Nc4ccc(OCc5cscn5)c(Cl)c4F)c23)CC1 [Compound 216, 1-(4-(4-((3-chloro-2-fluoro-4-(thiazol-4-ylmethoxy)phenyl)amino)-7H-pyrrolo[2,3-d]pyrimidin-5-yl)piperidin-1-yl)prop-2-en-1-one]	–	< 50 nM	< 50 nM	–	< 50 nM	–	–
C=CC(=O)N1CCC(c2c[nH]c3ncnc(Nc4ccc(OCc5csc(C)n5)c(Cl)c4)c23)CC1 [Compound 217, 1-(4-(4-((3-chloro-4-((2-methylthiazol-4-yl)methoxy)phenyl)amino)-7H-pyrrolo[2,3-d]pyrimidin-5-yl)piperidin-1-yl)prop-2-en-1-one]	–	< 50 nM	< 50 nM	–	< 50 nM	–	–
C=CC(=O)N1CCC(c2c[nH]c3ncnc(Nc4ccc(O[C@H](C)c5cscn5)c(Cl)c4)c23)CC1 [Compound 218, (R)-1-(4-(4-((3-chloro-4-(1-(thiazol-4-yl)ethoxy)phenyl)amino)-7H-pyrrolo[2,3-d]pyrimidin-5-yl)piperidin-1-yl)prop-2-en-1-one]	–	< 50 nM	< 50 nM	–	< 50 nM	–	–
C=CC(=O)N1CCC(c2c[nH]c3ncnc(Nc4ccc(OCc5ncsc5C)c(Cl)c4)c23)CC1 [Compound 219, 1-(4-(4-((3-chloro-4-((5-methylthiazol-4-yl)methoxy)phenyl)amino)-7H-pyrrolo[2,3-d]pyrimidin-5-yl)piperidin-1-yl)prop-2-en-1-one]	–	< 50 nM	< 50 nM	–	< 50 nM	–	–
C=CC(=O)N1CCC(c2c[nH]c3ncnc(Nc4ccc(OCc5ccccn5)c(Br)c4F)c23)CC1 [Compound 220, 1-[4-[4-[3-bromo-2-fluoro-4-(2-pyridylmethoxy)anilino]-7H-pyrrolo[2,3-d]pyrimidin-5-yl]-1-piperidyl]prop-2-en-1-one]	–	< 50 nM	< 50 nM	–	< 50 nM	–	–
C=CC(=O)N1CCC(c2c[nH]c3ncnc(Nc4ccc(OCc5cc6sccc6cn5)c(Cl)c4)c23)CC1 [Compound 224, 1-(4-(4-((3-chloro-4-(thieno[3,2-c]pyridin-6-ylmethoxy)phenyl)amino)-7H-pyrrolo[2,3-d]pyrimidin-5-yl)piperidin-1-yl)prop-2-en-1-one]	–	< 50 nM	–	–	–	< 50 nM	< 50 nM
C=CC(=O)N1[C@@H]2CC[C@H]1CC(c1c[nH]c3ncnc(Nc4ccc(OCc5ccccn5)c(Cl)c4)c13)C2 (stereo partly shown) [Compound 230]	–	< 50 nM	< 50 nM	–	< 50 nM	–	–
